# Molecular target: SUMO-activating enzyme (SAE), subunit 2 (UBA2/SAE2) (Homo sapiens, UniProt Q9UBT2)
# Assay: ATP-inorganic pyrophosphate exchange assay with SUMO2
# Assay type: biochemical
# SUMO-activating enzyme (SAE), subunit 2 (UBA2/SAE2), sequence (Q9UBT2 whole entry): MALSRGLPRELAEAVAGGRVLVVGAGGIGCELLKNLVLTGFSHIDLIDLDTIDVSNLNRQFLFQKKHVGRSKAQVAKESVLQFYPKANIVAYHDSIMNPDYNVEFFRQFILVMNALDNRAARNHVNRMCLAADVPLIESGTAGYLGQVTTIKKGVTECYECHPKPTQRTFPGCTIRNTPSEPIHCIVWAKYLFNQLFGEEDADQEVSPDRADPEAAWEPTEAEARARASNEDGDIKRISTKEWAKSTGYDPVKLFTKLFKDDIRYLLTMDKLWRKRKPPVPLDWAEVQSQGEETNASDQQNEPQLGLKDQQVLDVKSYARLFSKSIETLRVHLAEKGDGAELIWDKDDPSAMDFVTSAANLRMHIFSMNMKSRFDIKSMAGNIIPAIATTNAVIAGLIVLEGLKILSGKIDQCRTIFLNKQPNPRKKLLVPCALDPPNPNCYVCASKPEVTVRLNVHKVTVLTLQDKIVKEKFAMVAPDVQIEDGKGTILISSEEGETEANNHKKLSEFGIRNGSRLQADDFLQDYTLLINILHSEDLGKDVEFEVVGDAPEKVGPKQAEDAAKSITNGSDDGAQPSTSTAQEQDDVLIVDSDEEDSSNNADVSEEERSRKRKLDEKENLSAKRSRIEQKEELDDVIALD
# SUMO-activating enzyme (SAE), subunit 2 (UBA2/SAE2), sequence (Q9UBE0 whole entry, further chain): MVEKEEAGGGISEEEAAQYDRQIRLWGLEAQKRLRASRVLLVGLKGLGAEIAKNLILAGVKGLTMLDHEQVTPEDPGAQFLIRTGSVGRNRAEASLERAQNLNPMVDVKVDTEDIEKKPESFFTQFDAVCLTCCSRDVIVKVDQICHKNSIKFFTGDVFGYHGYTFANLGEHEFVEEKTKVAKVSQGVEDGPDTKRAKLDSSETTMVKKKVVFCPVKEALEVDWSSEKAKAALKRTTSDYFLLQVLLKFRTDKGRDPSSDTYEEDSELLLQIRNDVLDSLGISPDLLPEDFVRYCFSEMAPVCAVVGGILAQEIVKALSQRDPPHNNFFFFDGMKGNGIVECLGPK
substance,measurement,value
ML-93,IC50,37 nM
